Experimental data from US7566720B2, “2-pyridinyl-6,7,8,9-tetrahydropyrimido[1,2-a] pyrimidin-4-one and 7-pyridinyl-2,3-dihydroimidazo[1,2-a] pyrimidin-5(1H)one derivatives” (Sanofi-Aventis, priority 2000, dated 2009).
Counter-ions that a name gives are not always drawn.

| melting point [°C] | Structure (SMILES) |
| --- | --- |
| 194 to 196 | CC(C(=O)c1ccccc1)N1CCCn2c1nc(-c1ccncc1)cc2=O (racemic) (as salt: hydrochloride) [Compound No 73 of Table 1, 9-[1-methyl-2-oxo-2-phenyl-ethyl]-2-pyridin-4-yl-6,7,8,9-tetrahydro-4H-pyrimido[1,2-a]pyrimidin-4-one] |
| 158 to 160 | O=C(CCc1ccccc1)N1CCCn2c1nc(-c1ccncc1)cc2=O (as salt: salt) [Compound No 25 of Table 1, 9-[3-phenylpropanoyl]-2-pyridin-4-yl-6,7,8,9-tetrahydro-4H-pyrimido[1,2-a]pyrimidin-4-one] |
| 230 to 232 | O=C(CCc1ccccc1)N1CCCn2c1nc(-c1ccncc1)cc2=O [Compound No 25 of Table 1, 9-[3-phenylpropanoyl]-2-pyridin-4-yl-6,7,8,9-tetrahydro-4H-pyrimido[1,2-a]pyrimidin-4-one] |
| 232 to 234 | CC(C(O)c1ccccc1)N1CCCn2c1nc(-c1ccncc1)cc2=O (racemic) [Compound No 74 of Table 1, 9-[1-methyl-2-hydroxy-2-phenyl-ethyl]-2-pyridin-4-yl-6,7,8,9-tetrahydro-4H-pyrimido[1,2-a]pyrimidin-4-one] |
